Measurements as given in patent US8153589B2, “JNK3 as a target for the treatment of angiogenesis-related diseases” (The University of North Carolina at Chapel Hill, priority 2009, dated 2012).

Key:
Format in all cases: cell-based, bovine
[1] = system: eNOS; experiment: eNOS Ser 1177 phosphorylation, Western blot in BAECs
Procedure: (§1) Cells were harvested in lysis buffer (1% Triton X-100, 50 mM Tris, pH 7.4, 150 mM NaCl, 1 mM Na3VO4 and 0.1% protease inhibitor tablet; Roche) and clarified by centrifugation at 16,000 g. Equal amounts of proteins were incubated with a specific antibody overnight at 4° C. with gentle rotation. Protein A/G Plus-agarose beads (Santa Cruz Biotechnology, Santa Cruz, Calif.) were used to pull down the antibody complexes. Afterward, beads were washed with lysis buffer, and immune complexes were separated by SDS-PAGE. Total cell lysates were separated by SDS-PAGE and transferred to nitrocellulose membranes.
The degree of SDF-1α-induced activation of eNOS was examined in bovine aortic endothelial cells (BAECs) by monitoring phosphorylation of the Ser 1177 activation site in eNOS. […] Phosphorylation of Ser 1177 peaked at 5 minutes after SDF-1α stimulation (FIG. 1A), and increased in a dose-dependent fashion over a SDF-1α concentration range of 50 ng/ml to 500 ng/ml (FIG. 1B), which approximates physiologically relevant SDF-1α concentrations.

[2] = system: BAECs; experiment: Boyden chamber migration assay
Procedure: Boyden chamber assays were performed as previously described (40, 41) using a 48-well chamber apparatus (NeuroProbe, Cabin John, Md.). The lower chambers of the apparatus were filled with DMEM with or without SDF-1alpha and then covered with the collagen-coated filter and the upper chambers. Cells pretreated with or without the indicated inhibitors were then added to the upper chambers. After incubating for 6 h at 37° C., cells present on the lower surface were fixed, stained and identified with the 40× objective lens on a Nikon Eclipse TS 100 inverted microscope.
To determine whether eNOS activation is required for SDF-1α-mediated endothelial cell migration, we performed scratch-wound healing and Boyden chamber migration assays in the presence of the NOS-specific inhibitor L-NMMA (19). Confluent BAECs were pretreated for one hour with 1 mM or 5 mM L-NMMA or vehicle prior to each assay. […] Endothelial cells were transfected with 1 of 3 different bovine eNOS-specific siRNAs, or mixture of all three, and 72 hours later cell lysates were examined by western blot analysis for levels of eNOS protein.

[3] = system: ERK1/2; experiment: ERK1/2 activation, Western blot in BAECs; settings: BAECs, SDF-1α 50 ng/ml
Procedure: as §1
Mitogen-activated protein kinases (MAPKs), including ERK1/2 and p38, have been reported to enhance angiogenesis (20, 21). However, the role of JNK in angiogenesis remains controversial, with studies showing both positive and negative outcomes of JNK activation. In order to determine which MAPKs are involved in SDF-1α-induced endothelial cell migration, we screened the activities and expression levels of ERK1/2, p38 and JNK following treatment of BAECs with SDF-1α. […] SDF-1α activated both JNK and ERK1/2 in a dose-dependent manner (FIG. 2B). […] Exogenous JNK1, JNK2 and JNK3 proteins containing Flag or GFP-epitopes were transiently expressed in BAECs and their activities were determined via western blotting with a phospho-JNK antibody following SDF-1α treatment. […]

[4] = system: BAECs; experiment: In vitro Matrigel angiogenesis (tube formation) assay; settings: 50 ng/ml SDF-1α, control siRNA cells
Procedure: Endothelial cell tube formation was analyzed with the Matrigel-based tube formation assay (40, 41). Chilled 24-well plates were coated with growth factor-reduced Matrigel (Becton Dickinson, San Jose, Calif.) that was polymerized at 37° C. for 30 min. BAECs were transfected with siRNA constructs with the Amaxa Nucleofector electroporation reagent. Three days later, cells were trypsinized, and plated at equal numbers into each Matrigel-coated well. After 18 hours of incubation in the absence or presence of SDF-1alpha, the formation of tubes was photographed (Eclipse, 10× objective, TS100Nikon). Images were quantified with ImageJ.
Endothelial cell migration is a critical step for tube formation during angiogenesis. To test the importance of JNK3 in highly ordered cell assembly processes, we examined the effect of JNK knockdown with siRNAs on the formation of capillary-like tubes in Matrigel. BAECs were transfected with JNK1 siRNA, JNK2 siRNA, JNK3 siRNA or control siRNA. After 72 hours, cells were plated on Matrigel in medium containing 50 ng/ml SDF-1α.

[5] = system: BAECs; experiment: Scratch wound healing assay; settings: 50 ng/ml SDF-1alpha, no inhibitor
Procedure: For detection of cell migration, a wound healing assay was performed as previously described (40). BAECs were grown on 35 mm wells, the monolayer was scratched with a sterile disposable rubber policeman and the edge labeled with a traced line. After injury, the cells were gently washed with normal media without serum. EC migration from the edge of the injured monolayer was quantified by measuring the area between the wound edges before and the recovered area after injury using light microscopy (Eclipse TS100, 4× objective, Nikon) and the computer program ImageJ.
To determine whether eNOS activation is required for SDF-1α-mediated endothelial cell migration, we performed scratch-wound healing and Boyden chamber migration assays in the presence of the NOS-specific inhibitor L-NMMA (19). Confluent BAECs were pretreated for one hour with 1 mM or 5 mM L-NMMA or vehicle prior to each assay. […] Similarly, cell migration in Boyden chambers was induced by SDF-1α (from 8±3 to 86±5 cells per field), but this increase in migration was inhibited by the pre-incubation of BAECs with L-NMMA (FIG. 1D). The involvement of eNOS in SDF-1α-induced endothelial cell migration was confirmed by treatment of cells with siRNAs specific for eNOS. […]

SDF-1α was tested, and the “time of peak phosphorylation of eNOS Ser 1177 after stimulation” value ([1]; 50 ng/ml SDF-1alpha) was 5 min, the “eNOS phosphorylation (Ser 1177)” value ([1]; 50 ng/ml to 500 ng/ml SDF-1α) was “time- and dose-dependent manner” and the “cell migration in Boyden chambers” value ([2]; 50 ng/ml SDF-1alpha, no inhibitor (FIG. 1D)) was 86±5 cells per field. For the same substance, the endothelial cell migration ([2]; control-transfected BAECs, 50 ng/ml SDF-1alpha (FIG. 4F)) was 125±9 cells/field, the ERK1/2 activity [3] was “potently induced” and the tube length [4] was 605±106 μm. The “BAEC migration towards the wounded area” value [5] was 56.0±12.0%.
